Experimental findings from ChEMBL document CHEMBL5113468, “Design, synthesis, and biological evaluation of novel double-winged galloyl derivatives as HIV-1 RNase H inhibitors” (Eur J Med Chem, 2022) are described below.

Series [1] deals with Human immunodeficiency virus type 1 reverse transcriptase (Human immunodeficiency virus 1, UniProt Q72547). Put plainly: Inhibition of wild-type recombinant HIV-1 group M subtype B BH10 reverse transcriptase RNase-associated RNase H activity expressed in Escherichia coli XL1 blue using 32P-labeled 5'-UUUUUUUUUAGGAUACAUAUGGUUAAAGUAU-3'/5'-ATACTTTAACCATATGTATCC-3' RNA/DNA template-primer as substrate preincubated for 5 mins followed by substrate addition and measured after 15 mins by phosphorimaging analysis.

The subject of series [2] is Human immunodeficiency virus 1. Put plainly: Antiviral activity against HIV1 3B infected in human MT4 cells assessed as protection against virus-induced cytopathic effect incubated for 5 days by MTT assay. The note with it: Human immunodeficiency virus 1, 3B, MT4, 120 h. The class given is functional, organism-based. A general note: Protection from cytopathic effect is a common read-out in antiviral testing.

Series [3] relates to Human immunodeficiency virus 2. As to the kind of experiment: Antiviral activity against HIV2 ROD infected in human MT4 cells assessed as protection against virus-induced cytopathic effect incubated for 5 days by MTT assay. The class given is functional, organism-based. To be noted: Human immunodeficiency virus 2, ROD, MT4, 120 h.
Series [4] can be described thus: Cytotoxicity against human MT4 cells assessed as reduction in cell viability measured after 5 days by MTT assay. The class given is toxicity, cell-based. To be noted: time 5 day. Background: Formazan colour is commonly taken as a measure of viable cells.
The target in series [5] is Human immunodeficiency virus type 1 reverse transcriptase (Human immunodeficiency virus 1) (UniProt Q72547). As to the kind of experiment: Inhibition of wild-type recombinant HIV-1 group M subtype B BH10 reverse transcriptase RNase-associated RNase H activity expressed in Escherichia coli XL1 blue at 100 uM using 32P-labeled 5'-[…]-3'/5'-[…]-3' RNA/DNA template-primer as substrate preincubated for 5 mins followed by substrate addition and measured after 15 mins by phosphorimaging analysis relative to control. To be noted: time 20.0 min.

The target is the same in series [6]. As to the kind of experiment: Potency index, ratio of beta-thujaplicinol IC50 to test compound IC50 for inhibition of wild-type recombinant HIV-1 group M subtype B BH10 reverse transcriptase RNase-associated RNase H activity expressed in Escherichia coli XL1 blue.
Series [7] can be described thus: Apparent permeability across apical to basolateral side in human Caco-2 cells at 2 uM measured after 2 hrs by LC-MS/MS analysis. The series is classed as ADME, cell-based. On the technique in general: Caco-2 cells form a polarised layer with tight junctions and transporters.

By IC50 is commonly meant the point on the concentration scale where inhibition reaches its midpoint. In general, EC50 refers to the concentration at which the effect is half-maximal. The term CC50 denotes the concentration giving 50% cytotoxicity. In general, inhibition refers to the drop in the measured response relative to a control, in per cent. What is called Papp A→B is how fast a substance crosses the layer from the apical side.

`COc1ccc(CNC(=O)C2CN(S(=O)(=O)c3ccc(C#N)cc3)CCN2C(=O)c2cc(O)c(O)c(O)c2)cc1` (centres undefined): the IC50 in series [1] is above 10 µM. Further, the EC50 in series [2] and in series [3] was above 21.4 µM each time. Further, the CC50 at 120 h in series [4] worked out at 21.4 µM. In series [5], the inhibition was determined as 81.4%.

Regarding `Nc1ccc(S(=O)(=O)N2CCN(C(=O)c3cc(O)c(O)c(O)c3)C(C(=O)NCc3cccs3)C2)cc1` (centres undefined), in series [1], the IC50 is above 100 µM. Also, the EC50 is above 235 µM in series [2] and above 167 µM in series [3]. The CC50 at 120 h in series [4] was found to be 167 µM. The inhibition in series [5] turned out to be 45%.

On to `Nc1ccc(S(=O)(=O)N2CCN(C(=O)c3cc(O)c(O)c(O)c3)C(C(=O)NCc3ccco3)C2)cc1` (centres undefined), for which the IC50 in series [1] was determined as 0.067 µM. Also, in series [6], the Ratio IC50 was 30. The EC50 in series [2] and in series [3] was above 24.7 µM each time. Moreover, the CC50 at 120 h in series [4] was determined as 24.7 µM. The apparent permeability from apical to basolateral (Papp A→B) at 2 h, 2 µM in series [7] came out at 0.2 ×10⁻⁶ cm/s.

`Nc1ccc(S(=O)(=O)N2CCN(C(=O)c3cc(O)c(O)c(O)c3)CC2C(=O)NCc2cccs2)cc1` (centres undefined): the concentration for half-maximal inhibition (IC50) in series [1] is above 100 µM. Besides, the EC50 in series [2] and in series [3] was above 235 µM throughout. Further, the CC50 at 120 h in series [4] came to 235 µM. For the same molecule, in series [5], the inhibition amounted to 39.6%.

`COCCc1ccc(OCC(O)CNC(C)C)cc1` (centres undefined) [METOPROLOL]: the Papp A→B at 2 h, 2 µM in series [7] is below 0.48 ×10⁻⁶ cm/s.

`COc1ccc(CNC(=O)C2CN(S(=O)(=O)c3ccc(N)cc3)CCN2C(=O)c2cc(O)c(O)c(O)c2)cc1` (centres undefined): the IC50 in series [1] amounted to 0.27 µM. In addition, the EC50 in series [2] and in series [3] was above 21.7 µM throughout. Further, in series [4], the CC50 at 120 h came to 21.7 µM.

For the molecule `CN(C(=O)C1CN(S(=O)(=O)c2ccc(C#N)cc2)CCN1C(=O)c1cc(O)c(O)c(O)c1)c1ccccc1` (centres undefined), in series [1], the IC50 was found to be 0.31 µM. The EC50 in series [2] and in series [3] was above 113 µM throughout. Further, the CC50 at 120 h in series [4] is 113 µM.

As to `Nc1ccc(S(=O)(=O)N2CCN(C(=O)c3cc(O)c(O)c(O)c3)CC2)cc1`, in series [1], the IC50 was determined as 0.72 µM. Further, the EC50 in series [2] and in series [3] was above 18 µM in each case. In series [4], the CC50 at 120 h came to 18 µM.

Consider `N#Cc1ccc(S(=O)(=O)N2CCN(C(=O)c3cc(O)c(O)c(O)c3)C(C(=O)NCc3ccc4ccccc4c3)C2)cc1` (centres undefined), for which the IC50 in series [1] was above 20 µM. Besides, the EC50 in series [2] and in series [3] was above 213 µM each time. Moreover, the CC50 at 120 h in series [4] turned out to be 213 µM. Also, the inhibition in series [5] stood at 71.9%.

As for `N#Cc1ccc(S(=O)(=O)N2CCN(C(=O)c3cc(O)c(O)c(O)c3)C(C(=O)Nc3ccccc3)C2)cc1` (centres undefined), the IC50 in series [1] was above 20 µM. For the same molecule, the EC50 in series [2] and in series [3] was above 130 µM in each case. In series [4], the CC50 at 120 h turned out to be 130 µM. The inhibition in series [5] was 60.6%.

Turning to `N#Cc1ccc(S(=O)(=O)N2CCN(C(=O)c3cc(O)c(O)c(O)c3)C(C(=O)NCc3ccco3)C2)cc1` (centres undefined), the IC50 in series [1] is above 20 µM. The EC50 in series [2] and in series [3] was above 108 µM throughout. The CC50 at 120 h in series [4] worked out at 108 µM. Also, in series [5], the inhibition was 57.1%.

Regarding `CC(C)(C)OC(=O)N1CCC2(CCN(C(=O)C3CN(C(=O)c4cc(O)c(O)c(O)c4)CCN3S(=O)(=O)c3ccc(N)cc3)C2)C1` (centres undefined), the IC50 in series [1] came out at 0.18 µM. The EC50 in series [2] and in series [3] was above 42 µM in each case. The CC50 at 120 h in series [4] is 42 µM.

On to `CN(C(=O)C1CN(C(=O)c2cc(O)c(O)c(O)c2)CCN1S(=O)(=O)c1ccc(N)cc1)c1ccccc1` (centres undefined), for which, in series [1], the IC50 is 1.78 µM. The EC50 in series [2] and in series [3] was above 135 µM throughout. In addition, in series [4], the CC50 at 120 h was 135 µM.

As to `Nc1ccc(S(=O)(=O)N2CCN(C(=O)c3cc(O)c(O)c(O)c3)C(C(=O)Nc3ccccc3)C2)cc1` (centres undefined), in series [1], the IC50 amounted to 0.33 µM. In addition, the EC50 in series [2] and in series [3] was above 50.8 µM throughout. In series [4], the CC50 at 120 h came to 50.8 µM.

In the case of `Nc1ccc(S(=O)(=O)N2CCN(C(=O)c3cc(O)c(O)c(O)c3)CC2C(=O)NCc2cccc3ccccc23)cc1` (centres undefined), the IC50 in series [1] stood at 0.22 µM. The EC50 in series [2] and in series [3] was above 21.6 µM each time. Besides, the CC50 at 120 h in series [4] worked out at 21.6 µM.

`Nc1ccn([C@@H]2CS[C@H](CO)O2)c(=O)n1` [LAMIVUDINE]: the CC50 at 120 h in series [4] was above 87.3 µM.

As to `COc1ccc(CNC(=O)C2CN(C(=O)c3cc(O)c(O)c(O)c3)CCN2S(=O)(=O)c2ccc(N)cc2)cc1` (centres undefined), the IC50 in series [1] was determined as 0.14 µM. Moreover, the EC50 in series [2] and in series [3] was above 20.4 µM each time. Also, the CC50 at 120 h in series [4] was found to be 20.4 µM.

On to `Nc1ccc(S(=O)(=O)N2CCN(C(=O)c3cc(O)c(O)c(O)c3)CC2C(=O)NCc2ccc(-c3ccccc3)cc2)cc1` (centres undefined), for which the IC50 in series [1] came out at 0.34 µM. For the same molecule, the EC50 in series [2] and in series [3] was above 18.3 µM each time. In addition, in series [4], the CC50 at 120 h worked out at 18.3 µM.

For `Nc1ccc(S(=O)(=O)N2CCN(C(=O)c3cc(O)c(O)c(O)c3)CC2C(=O)NCc2ccco2)cc1` (centres undefined), the IC50 in series [1] worked out at 0.13 µM. In addition, the EC50 in series [2] and in series [3] was above 25.3 µM in each case. Further, the CC50 at 120 h in series [4] came out at 25.3 µM.

As to `N#Cc1ccc(S(=O)(=O)N2CCN(C(=O)c3cc(O)c(O)c(O)c3)C(C(=O)NCc3ccc(-c4ccccc4)cc3)C2)cc1` (centres undefined), the IC50 in series [1] was 0.41 µM. Further, the EC50 in series [2] and in series [3] was above 7.9 µM each time. In addition, the CC50 at 120 h in series [4] amounted to 7.9 µM.

`Nc1ccc(S(=O)(=O)N2CCN(C(=O)c3cc(O)c(O)c(O)c3)C(C(=O)NCc3ccc(-c4ccccc4)cc3)C2)cc1` (centres undefined): in series [1], the IC50 is above 100 µM. The EC50 in series [2] and in series [3] was above 207 µM throughout. For the same molecule, in series [4], the 50% cytotoxic concentration (CC50) at 120 h was determined as 207 µM. Moreover, the inhibition in series [5] stood at 47.6%.

Turning to `CC(C)c1ccc(O)c(=O)c(O)c1` [BETA-THUJAPLICINOL], the EC50 in series [2] and in series [3] was above 2.5 µM in each case.

On to `CN(C(=O)C1CN(S(=O)(=O)c2ccc(N)cc2)CCN1C(=O)c1cc(O)c(O)c(O)c1)c1ccccc1` (centres undefined), for which the IC50 in series [1] was determined as 0.99 µM. The EC50 in series [2] and in series [3] was above 237 µM in each case. For the same molecule, the half-maximal cytotoxic concentration (CC50) at 120 h in series [4] was found to be 237 µM.

Consider `Nc1ccc(S(=O)(=O)N2CCN(C(=O)c3cc(O)c(O)c(O)c3)CC2C(=O)Nc2ccccc2)cc1` (centres undefined), for which the IC50 in series [1] was 0.56 µM. The EC50 in series [2] and in series [3] was above 19.1 µM throughout. In series [4], the CC50 at 120 h amounted to 19.1 µM.

In the case of `Cc1ccnc2c1NC(=O)c1cccnc1N2C1CC1` [NEVIRAPINE], the EC50 in series [2] amounted to 0.17 µM. For the same molecule, the CC50 at 120 h in series [4] was above 15 µM.
